In patent US20250380696A1, “METHOD FOR CONTROLLING UNDESIRED PLANTS AND PROMOTING GROWTH OF USEFUL PLANTS” (ISHIHARA SANGYO KAISHA, LTD., priority 2022, published 2025):

Legend:
Type in all cases: in vivo
[1] = test system: Italian ryegrass (Lolium multiflorum); assay: (16) Herbicidal effect test (comparative test), pot, spray at 2.5 to 3.0 leaf stage; details: 4th day after spraying
Excerpt: (§1) [formula] • X: growth inhibition rate when treated with α (g/ha) of compound A, • Y: growth inhibition rate when treated with β (g/ha) of compound B, • E: growth inhibition rate expected when treated with α (g/ha) of compound A and β (g/ha) of compound B (expected value).
Upland soil was put in a 1/1,000,000 hectare pot, and seeds of Italian ryegrass (Lolium multiflorum) were sown. When Italian ryegrass reached 2.5 to 3.0 leaf stage, a water-based suspension containing tiafenacil as the active ingredient, prepared by a conventional method for preparing a water-based suspension, a water-based suspension containing saflufenacil as the active ingredient (tradename: Sharpen, manufactured by BASF), a wettable powder containing fomesafen as the active ingredient, prepared by a conventional method for preparing a wettable powder, an emulsifiable concentrate containing fluthiacet-methyl as the active ingredient (tradename: Attackshot emulsifiable concentrate, manufactured by MARUWA Biochemical Co., Ltd.), a dry flowable containing carfentrazone-ethyl as the active ingredient (tradename: Task DF, manufactured by ISHIHARA SANGYO KAISHA, LTD.) or a water-based suspension containing pyraflufen-ethyl as the active ingredient (tradename: ECOPART flowable, manufactured by NIHON NOHYAKU CO., LTD.), and an emulsifiable concentrate containing S-metolachlor as the active ingredient (tradename: Dual Gold, manufactured by Syngenta) or a wettable powder containing metribuzin as the active ingredient (tradename: SENCOR wettable powder, manufactured by Bayer Crop Science), were diluted with water (in an amount corresponding to 200 liter per hectare) containing 0.5 vol % of an agricultural spreader (tradename: Destiny HC, manufactured by Winfield Solutions, LLC.) and sprayed by a small spray gun (model: W-101-132G, manufactured by ANEST IWATA Corporation). On the 4th day after spraying, the state of growth of the Italian ryegrass was visually observed, and the growth inhibition rate (%) was obtained in accordance with the evaluation standards described in the above (1) herbicidal effect test, and the results are shown in Table 16. Further, the expected value of the growth inhibition rate (%) was calculated in accordance with the Colby's formula described in the above (1) herbicidal effect test, and the results are also shown in Table 16.

[2] = test system: horseweed (Conyza canadensis); assay: (14) Herbicidal effect test, pot, spray at diameter of 12 to 17 cm; details: 6th day after spraying
Excerpt: as §1
Upland soil was put in a 1/1,000,000 hectare pot, and seeds of horseweed (Conyza canadensis) were sown. When the horseweed reached a diameter of 12 to 17 cm, a water-based suspension containing tiafenacil as the active ingredient, prepared by a conventional method for preparing a water-based suspension, and an emulsifiable concentrate containing S-metolachlor as the active ingredient (tradename: Dual Gold, manufactured by Syngenta), a wettable powder containing metribuzin as the active ingredient (tradename: SENCOR wettable powder, manufactured by Bayer Crop Science) or water dispersible granules containing pyroxasulfone as the active ingredient (tradename: Sakura, manufactured by Bayer Crop Science) were diluted with water (in an amount corresponding to 200 liter per hectare) containing 0.5 vol % of an agricultural spreader (tradename: Destiny HC, manufactured by Winfield Solutions, LLC.) and sprayed by a small spray gun (model: W-101-132G, manufactured by ANEST IWATA Corporation). On the 6th day after spraying, the state of growth of the horseweed was visually observed, and the growth inhibition rate (%) was obtained in accordance with the evaluation standards described in the above (1) herbicidal effect test, and the results are shown in Table 14. Further, the expected value of the growth inhibition rate (%) was calculated in accordance with the Colby's formula described in the above (1) herbicidal effect test, and the results are also shown in Table 14.

[3] = test system: forage corn (cultivar: SNOW DENT OTOHA); assay: (18) Plant growth promotion effect test (corn), Italian ryegrass sown; details: 21st day after the sowing, above-ground part
Excerpt: Upland soil was put in a 1/1,000,000 hectare pot, and seeds of Italian ryegrass (Lolium multiflorum) were sown. When the Italian ryegrass reached 2.7 to 3.1 leaf stage, a water-based suspension containing tiafenacil as the active ingredient, prepared by a conventional method for preparing a water-based suspension, and an emulsifiable concentrate containing S-metolachlor as the active ingredient (tradename: Dual Gold, manufactured by Syngenta), a wettable powder containing metribuzin as the active ingredient (tradename: SENCOR wettable powder, manufactured by Bayer Crop Science) or water dispersible granules containing pyroxasulfone as the active ingredient (tradename: Sakura, manufactured by Bayer Crop Science) were diluted with water (in an amount corresponding to 200 liter per hectare) containing 0.5 vol % of an agricultural spreader (tradename: Destiny HC, manufactured by Winfield Solutions, LLC.) and sprayed by a small spray gun (model: W-101-132G, manufactured by ANEST IWATA Corporation). Seeds of forage corn (cultivar: SNOW DENT OTOHA, manufactured by SNOW BRAND SEED Co., Ltd.) were sown in the pot after spraying. On the 21st day after the sowing, the above-ground part of the forage corn was reaped, and its weight was measured to obtain the raw weight.

[4] = test system: horseweed (Conyza canadensis); assay: (15) Herbicidal effect test, pot, spray at diameter of 13 to 19 cm; details: 3rd day after spraying
Excerpt: as §1
Upland soil was put in a 1/1,000,000 hectare pot, and seeds of horseweed (Conyza canadensis) were sown. When the horseweed reached a diameter of 13 to 19 cm, a water-based suspension containing tiafenacil as the active ingredient, prepared by a conventional method for preparing a water-based suspension, and a wettable powder containing tri-allate as the active ingredient, prepared by a conventional method for preparing a wettable powder, an emulsifiable concentrate containing pethoxamid as the active ingredient (tradename: Successor 600, manufactured by Stähler Suisse SA) or an emulsifiable concentrate containing dimethenamid-P as the active ingredient (tradename: Fieldstar P emulsifiable concentrate, manufactured by BASF) were diluted with water (in an amount corresponding to 200 liter per hectare) containing 0.5 vol % of an agricultural spreader (tradename: Destiny HC, manufactured by Winfield Solutions, LLC.) and sprayed by a small spray gun (model: W-101-132G, manufactured by ANEST IWATA Corporation). On the 3rd day after spraying, the state of growth of the horseweed was visually observed, and the growth inhibition rate (%) was obtained in accordance with the evaluation standards described in the above (1) herbicidal effect test, and the results are shown in Table 15. Further, the expected value of the growth inhibition rate (%) was calculated in accordance with the Colby's formula described in the above (1) herbicidal effect test, and the results are also shown in Table 15.

Q: For `CCc1cccc(C)c1N(C(=O)CCl)[C@@H](C)COC` [S-metolachlor], which “Growth inhibition rate (%) Measured value” ([1]; Dose 750 g/ha) is on record?
A: The value was 3%.

Q: And the “Growth inhibition rate (%) Measured value” ([2]; Dose 7.5 g/ha)?
A: Its value is 0%.

Q: What about the “Growth inhibition rate (%) Measured value” ([2]; Dose 375 g/ha) of the same molecule?
A: Its value is 0%.

Q: And the “Growth inhibition rate (%) Measured value” ([2]; Dose 750 g/ha)?
A: Its value is 0%.

Q: What about the “Raw weight (g) of forage corn” value ([3]; Dose 7.5 g/ha) of the same molecule?
A: Its value is 3.5 g.

Q: And the “Raw weight (g) of forage corn” value ([3]; Dose 750 g/ha)?
A: The value was 3.1 g.

Q: With `COC[C@H](C)N(C(=O)CCl)c1c(C)csc1C` [dimethenamid-P] as the molecule, how does the “Growth inhibition rate (%) Measured value” ([4]; Dose 60 g/ha) read?
A: The value was 0%.

Q: And the “Growth inhibition rate (%) Measured value” ([4]; Dose 375 g/ha)?
A: The value was 0%.

Q: What about the “Growth inhibition rate (%) Measured value” ([4]; Dose 750 g/ha) of the same molecule?
A: Its value is 0%.

Q: Which inhibition at 18.75 g/ha ([1]; Lolium multiflorum, Dose 18.75 g/ha, read-out: Growth inhibition rate (%) Measured value) does the source give for `CSc1nnc(C(C)(C)C)c(=O)n1N` [metribuzin] here?
A: Its inhibition at 18.75 g/ha is 7%.

Q: What about the inhibition at 9.38 g/ha ([2]; Erigeron canadensis, Dose 9.38 g/ha, read-out: Growth inhibition rate (%) Measured value) of the same molecule?
A: The inhibition at 9.38 g/ha was 0%.

Q: What about the inhibition at 550 g/ha ([2]; Erigeron canadensis, Dose 550 g/ha, read-out: Growth inhibition rate (%) Measured value) of the same molecule?
A: The inhibition at 550 g/ha was 5%.

Q: What about the inhibition at 1100 g/ha ([2]; Erigeron canadensis, Dose 1100 g/ha, read-out: Growth inhibition rate (%) Measured value) of the same molecule?
A: Its inhibition at 1100 g/ha is 5%.

Q: What about the “Raw weight (g) of forage corn” value ([3]; Dose 225 g/ha) of the same molecule?
A: The value was 4.7 g.

Q: And the “Raw weight (g) of forage corn” value ([3]; Dose 550 g/ha)?
A: The value was 5.6 g.

Q: What does the source list for `CCOCCN(C(=O)CCl)C(=C(C)C)c1ccccc1` [pethoxamid]?
A: Growth inhibition rate (%) Measured value ([4]; Dose 93.8 g/ha): 0%; Growth inhibition rate (%) Measured value ([4]; Dose 375 g/ha): 0%; Growth inhibition rate (%) Measured value ([4]; Dose 750 g/ha): 0%

Q: `Cn1nc(C(F)(F)F)c(CS(=O)(=O)C2=NOC(C)(C)C2)c1OC(F)F` [pyroxasulfone] was tested. Which inhibition at 7.5 g/ha ([2]; Erigeron canadensis, Dose 7.5 g/ha, read-out: Growth inhibition rate (%) Measured value) did it give?
A: Its inhibition at 7.5 g/ha is 0%.

Q: And the inhibition at 250 g/ha ([2]; Erigeron canadensis, Dose 250 g/ha, read-out: Growth inhibition rate (%) Measured value)?
A: Its inhibition at 250 g/ha is 0%.

Q: And the inhibition at 500 g/ha ([2]; Erigeron canadensis, Dose 500 g/ha, read-out: Growth inhibition rate (%) Measured value)?
A: Its inhibition at 500 g/ha is 0%.

Q: And the “Raw weight (g) of forage corn” value ([3]; Dose 7.5 g/ha)?
A: Its value is 5.8 g.

Q: And the “Raw weight (g) of forage corn” value ([3]; Dose 125 g/ha)?
A: The value was 3.3 g.

Q: What about the “Raw weight (g) of forage corn” value ([3]; Dose 250 g/ha) of the same molecule?
A: The value was 3.8 g.

Q: Which results are given for `COC(=O)CCNC(=O)C(C)Sc1cc(-n2c(=O)cc(C(F)(F)F)n(C)c2=O)c(F)cc1Cl` (stereo not shown) [tiafenacil]?
A: Growth inhibition rate (%) Measured value ([1]; Dose 12.5 g/ha): 38%; Growth inhibition rate (%) Measured value ([2]; Dose 6.25 g/ha): 23%; Growth inhibition rate (%) Measured value ([4]; Dose 6.25 g/ha): 17%; Raw weight (g) of forage corn ([3]; Dose 6.25 g/ha): 3.2 g

Q: What does the source list for `CC(C)N(C(=O)SCC(Cl)=C(Cl)Cl)C(C)C` [tri-allate]?
A: inhibition at 75 g/ha ([4]; Erigeron canadensis, Dose 75 g/ha, read-out: Growth inhibition rate (%) Measured value): 0%; inhibition at 625 g/ha ([4]; Erigeron canadensis, Dose 625 g/ha, read-out: Growth inhibition rate (%) Measured value): 5%; inhibition at 1250 g/ha ([4]; Erigeron canadensis, Dose 1250 g/ha, read-out: Growth inhibition rate (%) Measured value): 3%
